Measured values: US10907219B2, “Compositions and methods for controlling cellular function” (STC.UNM, priority 2014, dated 2021)
“Also recorded” adds a separate entry of the source.

How the values were obtained:
[1] = tested on: EGFP-PYL and NES-ABI in CHO cells; assay: Light-induced EGFP-PYL nuclear export (fixed cells); format: cell-based; conditions: for subcellular location of EGFP-PYL: CHO cells; for reversibility of EGFP nuclear exportation: washed with fresh media
Experimental: The ability to use light to control protein translocation through ABA-DMNB uncaging was evaluated next. Plasmids expressing EGFP-tagged PYL and nuclear export sequence (NES) peptide-linked ABI (FIG. 22A) were transfected into CHO cells. The transfected cells were then either treated or not treated with ABA, ABA-DMNB, or ABA-DMNB and irradiated for 60 seconds. Fluorescence microscopy analysis was used to determine subcellular locations of EGFP fusion proteins. […] Furthermore, the observed nuclear export of EGFP fusion protein can be readily reversed by washing away the uncaged ABA using fresh media. Thus, protein translocation can be induced by light through photo-uncaged ABA and can be readily reversed.
Slide preparation: Cells were grown on glass coverslips in 24-well plates. The coverslips were washed with phosphate-buffered saline (PBS) and fixed with 4% paraformaldehyde (PFA, 300 μL, prepared in PBS) at room temperature for 20 min. The cells were then washed twice with PBS and incubated with 1×DAPI in the dark at the room temperature for 5 min. After a final wash with PBS, the coverslips were mounted on a glass slide with VECTASHIELD (Vector Laboratories, Inc., Burlingame, Calif.) mounting media and allowed to stand for two hours in the dark before imaging.
Fluorescence microscopy imaging: Slides were imaged with an Axio Observer (Carl Zeiss AG, Oberkochen, Germany) microscope or with am LSM 510 Meta confocal microscope (Carl Zeiss AG, Oberkochen, Germany) mounted on an AxioObserver inverted microscope with a 63× oil objective. Images were taken with DAPI and GFP channels.
Statistical analysis of cell population: Cell were categorized as displaying nuclear export of EGFP when the fluorescent intensity of the nucleus was less than 60% of the intensity of the cytoplasm. […] Cells were counted from three separate experiments, with N>50 for each experiment.

[2] = Photo-cleavage (uncaging) of caged ABA (HPLC); format: physicochemical; conditions: for formation of 2-trans ABA isomer on irradiation: 365 nm photo-cleavage condition; for photo-cleavage by 365 nm light / photo-cleavage by 405 nm light: 10 μM in DMSO
Experimental: HPLC analysis: Reversed-phase HPLC was performed on an ACCLAIM 120 (4.6×100 mm) C18 column (Thermo Fisher Scientific, Waltham, Mass.) with an ULTIMATE 3000 pump system, including a Variable Wavelength Detector 3100, Degasser 1210, and Autosampler SPS 3000 (Thermo Fisher Scientific, Waltham, Mass.). A mixture of water and acetonitrile containing 0.1% TFA was used as the eluent. Absorbance at 250 nm was used to monitor the elution of the molecules. The method used an increase in acetonitrile from 5% to 95% over 15 minutes to elute the molecules at a flow rate of 0.7 mL/min. The peaks for the molecules were integrated by using Chromeleon software (Thermo Fisher Scientific, Waltham, Mass.). The molar absorptivity of both free and caged ABA at 250 nm were measured, which was used to calculate the concentration of each species from the intensity of absorbance at 250 nm. The relative concentration of each compound was used to calculate the percent concentration of free ABA relative to the concentration of total ABA species (both caged and uncaged).
Photo-irradiation: Irradiation at 365 nm was performed with an Axio Observer (Carl Zeiss AG, Oberkochen, Germany) microscope with an HBO103 W/2 mercury arc lamp (Carl Zeiss AG, Oberkochen, Germany). Irradiation was performed by using a DAPI filter (Carl Zeiss AG, Oberkochen, Germany), set with peak excitation at 365 nm (power density: 23 mW cm^2) and a spectral width of 50 nm. No objective lens was used for whole-well irradiation, which created an area of illumination that nearly completely covered one well of a 24-well plate. Light was transmitted through the bottom of the well of polystyrene plate. Irradiation at 405 nm was performed by using an adjustable focus violet purple laser pointer (LazerPoint SKU 0733579), with an excitation wavelength of 405 nm and 1000 mW intensity positioned 8 cm above the bottom of either a 96-well or 24-well plate and irradiated through the polystyrene lid. All samples for HPLC analysis were irradiated in DMSO to prevent evaporation of solvent and changes in sample concentration. Irradiation of cell cultures was performed in 24-well plates containing culture medium (500 μL).

[3] = tested on: CHO cells transfected with ABA-inducible luciferase constructs; assay: ABA-inducible luciferase assay; format: cell-based; conditions: for stability in cell culture: 12 or 24 h, luciferase assay
Experimental: The cellular stability of ABA-DMNB was explored further using a more sensitive and quantitative luciferase assay system, which employs an inducible luciferase construct (FIG. 21A). CHO cells were transfected with the ABA-inducible luciferase constructs for 24 hours and then 10 μM of ABA-DMNB was added and incubated in dark for 12 or 24 hours. Cells were then harvested and analyzed by using the luciferase assay.
Cell culture and transfection: CHO cells and HEK 293T EGFP reporter cells (provided by Dr. Gerald R. Crabtree) were cultured in Dulbecco's modified Eagle's medium (DMEM; GIBCO, Life Technologies, Carlsbad, Calif.) with 10% FBS (Atlanta Biologicals, Inc., Norcross, Ga.), 1×GlutaMAX (GIBCO, Life Technologies, Carlsbad, Calif.), and 1× penicillin/streptomycin (Pen/Strep; GIBCO, Life Technologies, Carlsbad, Calif.). 15,000-50,000 ells were plated in a 24-well or 8-well plate for 24 hours before transfection. DNA constructs (0.1 μg-0.5 μg) were added to 50× (v/w) Opti-MEM (GIBCO, Life Technologies, Carlsbad, Calif.), and then 3× (v/w) PEI (Polysciences, Inc., Warrington, Pa.) was mixed with the DNA. The mixture was incubated for 20 minutes at room temperature before adding it to cell cultures. The cells were grown for one day after transfection before experiments were performed.
Luciferase assay: Cells from 24-well plates were washed with PBS and lysed with Reporter lysis buffer (100 μL; Promega Corp., Madison, Wis.) by incubation and gentle shaking at room temperature for 10 minutes after a freeze/thaw cycle. Cell lysates were centrifuged at 15,000 rpm in an Eppendorf 5424 Centrifuge with lysate used for the luciferase assay (25 μL). Luciferase assay reagent (100 μL, 5 mg luciferin (Gold Biotechnology, Inc., St. Louis, Mo.) and coenzyme A (7 mg; Sigma-Aldrich, St. Louis, Mo.) in Luciferase Assay Buffer (33 mL, 20 mM tricine, 1.07 mM (MgCO3)4Mg(OH)2.5 H2O, 2.67 mM MgSO4, 0.1 mM EDTA, 33.3 mM dithiothreitol, and 0.53 mM ATP in water) was added to lysates. Luciferase assay reagent was added through the auto-injector of a GLOMAX-Multi Detection System (Promega Corp., Madison, Wis.), and the signal was detected by the instrument with a 1.5 s delay and 0.5 s integration time. All experiments were conducted in triplicate.

Structure (SMILES) | subcellular location of EGFP-PYL ([1]; not irradiated) | reversibility of EGFP nuclear exportation ([1]; not irradiated) | formation of 2-trans ABA isomer on irradiation [2] | luciferase expression ([3]; not irradiated, twelve hours after addition) | EGFP-PYL nuclear export ([1]; 10 μM, 405 nm light irradiation, fixed CHO cells) | photo-cleavage by 365 nm light [2] | photo-cleavage by 405 nm light [2] | irradiation time to complete cleavage ([2]; 405 nm light) [min] | formation of isomerized ABA on irradiation ([2]; 405 nm uncaging) | stability in cell culture ([3]; 10 μM, dark) | subcellular location of EGFP-PYL ([1]; 365 nm UV irradiation 60 seconds) | reversibility of EGFP nuclear exportation ([1]; after UV irradiation) | subcellular location of EGFP-PYL ([1]; not irradiated, listed as ABADMNB) | irradiation time after which free ABA is regenerated ([2]; 10 μM and 100 μM, 365 nm UV light) [s] | irradiation time to regenerate free ABA ([2]; 100 μM, 365 nm light) [min] | luciferase expression ([3]; 10 μM, dark, 12 hours) | luciferase expression ([3]; 10 μM, dark, 24 hours)
CC1=CC(=O)CC(C)(C)C1(O)/C=C/C(C)=C\C(=O)O (stereo not shown) [ABA, abscisic acid, reference compound] | exported out of the nucleus; also recorded: markedly decreased intensities of EGFP in the nuclei within 15 minutes | reversed following three washes (within 30 minutes) | very little 2-trans isomer was produced | induced luciferase expression | – | – | – | – | – | – | – | – | – | – | – | – | –
CCN(CC)c1ccc2c(COC(=O)/C=C(C)\C=C\[C@@]3(O)C(C)=CC(=O)CC3(C)C)cc(=O)oc2c1 [ABA-DEACM] | – | – | – | – | ability to induce EGFP-PYL nuclear export | cannot be cleaved effectively under 365 nm light; also recorded: cannot be cleaved efficiently by 365 nm light | cleaved rapidly to give ABA within a few minutes | ≤ 4 | isomerized ABA was also produced | stable chemically and in cell culture | – | – | – | – | – | – | –
COc1cc(COC(=O)/C=C(C)\C=C\[C@@]2(O)C(C)=CC(=O)CC2(C)C)c([N+](=O)[O-])cc1OC [ABA-DMNB] | EGFP distribution throughout the whole cells | – | near equal amount | – | – | rapidly regenerated from the photo-uncaging of ABA-DMNB within a min | cannot efficiently uncage | – | – | relatively stable under the cell culture condition | exported out of the nucleus; also recorded: markedly decreased intensities of EGFP in the nuclei within 15 minutes | reversed following three washes (within 30 minutes) | distributed throughout the cell | 120 | ≤ 2 | very little luciferase expression | only a minimal level of luciferase was induced
